Experimental data published in article PMC6116703, “Ethenesulfonyl fluoride derivatives as telomerase inhibitors: structure-based design, SAR, and anticancer evaluation in vitro” (Journal of Enzyme Inhibition and Medicinal Chemistry, 2018).
Read-outs that look alike come from different tables or passages of the source.

Tests used:
[1] = system: human hepatoma cell SMMC-7721; experiment: Cell proliferation (MTT) assay, SMMC-7721; assay type: cell-based; conditions: read-out: IC50 SMMC-7721
Procedure: (§1) The antiproliferative activities evaluation was conducted by using a modified procedure as described in the literature. Briefly, target tumour cells were grown to log phase in RPMI 1640 medium supplemented with 10% fetal bovine serum. After diluting to 3 × 10^4 cells mL^−1 with the complete medium, 100 µL of the obtained cell suspension was added to each well of 96-well culture plates. The subsequent incubation was performed at 37 °C, 5% CO2 atmosphere for 24 h before subjecting to antiproliferation assessment. The tested samples at pre-set concentrations were added to six wells with Doxorubicin (AMD) co-assayed as a positive reference. After 48 h of exposure period, 25 µL of PBS containing 2.5 mg·mL^−1 of MTT was added to each well. After 4 h, the medium was replaced by 150 µL DMSO to dissolve the purple formazan crystals produced. The absorbance at 570 nm of each well was measured using an ELISA plate reader. The data represented the mean of three experiments in triplicate and were expressed as means ± SD using Student’s test.

[2] = system: human gastric cancer cells SGC-7901; experiment: Cell proliferation (MTT) assay, SGC-7901; assay type: cell-based; conditions: read-out: IC50 SGC-7901
Procedure: as §1

human melanoma cell A375 = experiment: Cell proliferation (MTT) assay, A375; assay type: cell-based
Procedure: as §1

[3] = system: human breast cancer cell MDA-MB-231; experiment: Cell proliferation (MTT) assay, MDA-MB-231; assay type: cell-based
Procedure: as §1

telomerase = target: T1, telomerase (Homo sapiens, UniProt O14746); experiment: Telomerase activity TRAP-PCR-ELISA assay (A375 cell extract); assay type: biochemical; conditions: IC50 inhibitory activity against telomerase, TRAP-PCR-ELISA, A375 cells, 24 h treatment
T1 construct: endogenous in cells; host or cells: A375 human melanoma cells
T1 sequence (O14746 whole entry): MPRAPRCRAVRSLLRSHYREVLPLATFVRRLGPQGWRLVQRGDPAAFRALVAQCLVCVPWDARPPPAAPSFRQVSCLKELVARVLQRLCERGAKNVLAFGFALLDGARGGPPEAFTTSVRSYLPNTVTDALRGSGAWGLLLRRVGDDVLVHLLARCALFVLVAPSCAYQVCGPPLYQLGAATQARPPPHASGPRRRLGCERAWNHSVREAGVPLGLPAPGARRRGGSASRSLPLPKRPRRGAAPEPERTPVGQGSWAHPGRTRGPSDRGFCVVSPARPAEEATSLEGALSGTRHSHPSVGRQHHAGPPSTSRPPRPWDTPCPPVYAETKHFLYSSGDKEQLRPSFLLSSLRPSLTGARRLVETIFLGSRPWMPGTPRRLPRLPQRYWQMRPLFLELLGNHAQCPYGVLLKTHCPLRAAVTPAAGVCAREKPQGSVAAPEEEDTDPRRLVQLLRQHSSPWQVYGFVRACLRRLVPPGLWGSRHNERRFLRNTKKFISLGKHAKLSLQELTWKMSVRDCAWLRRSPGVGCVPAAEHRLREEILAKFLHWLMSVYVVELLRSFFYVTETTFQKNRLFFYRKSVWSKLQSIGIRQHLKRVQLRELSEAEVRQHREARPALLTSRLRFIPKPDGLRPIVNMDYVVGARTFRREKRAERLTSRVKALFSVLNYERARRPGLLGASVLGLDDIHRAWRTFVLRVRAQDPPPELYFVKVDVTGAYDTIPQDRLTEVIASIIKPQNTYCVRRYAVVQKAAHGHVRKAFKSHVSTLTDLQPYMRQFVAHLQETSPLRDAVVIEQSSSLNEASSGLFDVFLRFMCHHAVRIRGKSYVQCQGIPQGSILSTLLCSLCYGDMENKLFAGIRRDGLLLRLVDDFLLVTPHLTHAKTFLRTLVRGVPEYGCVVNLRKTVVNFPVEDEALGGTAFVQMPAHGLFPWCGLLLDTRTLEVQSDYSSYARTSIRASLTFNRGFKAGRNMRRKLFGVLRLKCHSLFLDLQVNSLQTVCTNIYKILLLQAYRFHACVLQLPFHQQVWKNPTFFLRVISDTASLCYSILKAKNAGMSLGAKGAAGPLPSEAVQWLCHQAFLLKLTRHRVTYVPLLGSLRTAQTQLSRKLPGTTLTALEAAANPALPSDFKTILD
Procedure: Thirty-six compounds were tested in a search for inhibitors of telomerase activity using the TRAP-PCR-ELISA assay. In detail, the A375 cells were firstly maintained in RPMI 1640 buffer (Hyclone, Miami, FL), supplemented with 10% fetal bovineserum (GIBCO, New York, NY), streptomycin (0.1 mg/mL) and penicillin (100 IU/mL) at 37 °C in a humidified atmosphere containing 5% CO2. After trypsinisation, 5 × 10^4 cultured cells in logarithmic growth were seeded into T25 flasks (Corning, New York, NY) and cultured to allow to adherence. […] After 24 h treatment, the cells were harvested by cell scraper orderly followed by washing once with PBS. The cells were lysed in 150 µL RIPA cell lysis buffer (Santa Cruz, Santa Cruz, CA), and incubated on ice for 30 min. The cellular supernatants were obtained via centrifugation at 12,000g for 20 min at 4 °C and stored at –80 °C. The TRAP-PCR-ELISA assay was performed using a telomerase detection kit (Roche, Basel, Switzerland) according to the manufacturer’s protocol. In brief, 2 µL of cell extracts were mixed with 48 µL TRAP reaction mixtures. TRAP primers and Taq polymerase are incubated at 25 °C for 30 min. PCR was then initiated at 94 °C, 120 s for predenaturation and performed using 35 cycles each consisting of 94 °C for 30 s, 50 °C for 30 s, 72 °C for 90 s. Then 20 µL of PCR products were hybridised to a digoxigenin (DIG)-labelled telomeric repeat specific detection probe. And the PCR products were immobilised via the biotin-labelled primer to a streptavidin-coated microtiter plate subsequently. The immobilised DNA fragments were detected with a peroxidase-conjugated anti-DIG antibody and visualised following the addition of the stop regent. The microtitre plate was assessed on TECAN Infinite M200 microplate reader (Mannedorf, Switzerland) at a wavelength of 490 nm, and the final value were presented as mean ± SD[23].

[4] = system: gastric mucosa cell (GES-1); experiment: Proliferative inhibition assay of human normal cell GES-1 (MTT); assay type: cell-based
Procedure: as §1
(§2) In order to determine the selective cancer cell toxicity of some title compounds. We subsequently conducted a proliferative inhibition assay with human normal liver cell (L-02) and gastric mucosa cell (GES-1).

[5] = system: human normal liver cell (L-02); experiment: Proliferative inhibition assay of human normal cell L-02 (MTT); assay type: cell-based; conditions: normal liver cells
Procedure: as §1, §2

[6] = system: human gastric cancer cells MGC-803; experiment: Cell proliferation (MTT) assay, MGC-803; assay type: cell-based; conditions: read-out: IC50 MGC-803
Procedure: as §1

[7] = antiproliferative, MTT, 48 h exposure
[8] = antiproliferative, MTT, 48 h exposure, read-out: IC50 A375
[9] = antiproliferative, MTT, 48 h exposure, read-out: IC50 MDA-MB-231
[10] = Homo sapiens, A-375, 48 h, read-out: IC50 A375, antiproliferative, MTT, 48 h exposure
[11] = Homo sapiens, GES1, normal gastric mucosa cells
[12] = Homo sapiens, MDA-MB-231, 48 h, read-out: IC50 MDA-MB-231, antiproliferative, MTT, 48 h exposure

Compound | IC50 (human melanoma cell A375; [8]) [µM] | IC50 [3, 9] [µM] | IC50 (telomerase) [µM] | IC50 (human melanoma cell A375; [10]) [µM] | IC50 [3, 12] [µM] | IC50 ([1]; Homo sapiens, SMMC-7721, 48 h) [µM] | further results
CC(C)(C)c1ccc(/C=C/C=C/S(=O)(=O)F)cc1 [Compound 50] | 20.7 ± 1.39 | 31.6 ± 1.2 | – | – | – | – | IC50 [1, 7]: 29.1 ± 1.27 µM; IC50 [2, 7]: 26.9 ± 0.56 µM
O=S(=O)(F)/C=C/c1ccccc1Br [Compound 76] | 18 ± 1.09 | 36 ± 1.2 | – | – | – | – | IC50 [2, 7]: 50.2 ± 1.79 µM
O=Cc1ccc(/C=C/S(=O)(=O)F)cc1 [Compound 15] | – | – | 1.87 ± 0.41 | 13.1 ± 0.7 | 3.64 ± 0.22 | – | IC50 [4, 11]: 2500 ± 220 µM; IC50 ([5]; Homo sapiens): 2110 ± 190 µM
O=S(=O)(F)/C=C/c1ccccc1 [Compound 1] | – | – | 2.41 ± 0.51 | 5.21 ± 0.39 | 8.67 ± 0.61 | – | IC50 [4, 11]: 1450 ± 170 µM; IC50 ([5]; Homo sapiens): 1970 ± 200 µM
COc1cc(/C=C/C=C/S(=O)(=O)F)cc(OC)c1 [Compound 56] | – | – | 3.2 ± 0.55 | 6.92 ± 0.44 | 12.2 ± 0.92 | 19.3 ± 0.82 | IC50 ([2]; Homo sapiens, SGC-7901, 48 h): 34.5 ± 1.04 µM
O=S(=O)(F)/C=C/c1cccc(-c2ccccc2)c1 [Compound 75] | – | – | 4.4 ± 2 | 9.27 ± 0.91 | 21.3 ± 1.04 | 32.1 ± 1.02 | IC50 ([2]; Homo sapiens, SGC-7901, 48 h): 21.9 ± 0.61 µM; IC50 [4, 11]: 1890 ± 170 µM; IC50 ([5]; Homo sapiens): 2440 ± 220 µM
CC(=O)c1cccc(/C=C/S(=O)(=O)F)c1 [Compound 21] | 16.6 ± 0.91 | 23.1 ± 2.78 | – | – | – | – | IC50 [1, 7]: 11.8 ± 0.6 µM; IC50 [2, 7]: 30.8 ± 2 µM
O=S(=O)(F)/C=C/c1cccc(I)c1 [Compound 72] | 13 ± 0.77 | 22.6 ± 1 | – | – | – | – | IC50 [1, 7]: 16.1 ± 0.91 µM; IC50 [6, 7]: 44.9 ± 1.13 µM
Cc1ccc(/C=C/C=C/S(=O)(=O)F)cc1 [Compound 49] | 32.8 ± 1.44 | 35.2 ± 1.4 | – | – | – | – | IC50 [1, 7]: 48.5 ± 1.65 µM; IC50 [2, 7]: 49.79 ± 0.47 µM
O=S(=O)(F)/C=C/C=C/c1ccc(/C=C/S(=O)(=O)F)cc1 [Compound 57, (1E,3E)-4-(4-((E)-2-(fluorosulfonyl)vinyl)phenyl)buta-1,3-diene-1-sulfonyl fluoride] | – | – | 0.97 ± 0.12 | ~3 | 3.22 ± 0.18 | – | IC50 (human melanoma cell A375; read-out: IC50 A375, antiproliferative, MTT, 48 h exposure): 1.58 ± 0.06 µM; IC50 [4, 11]: < 2000 µM; IC50 ([4]; normal gastric mucosa cells): 2190 ± 180 µM; IC50 ([5]; Homo sapiens): < 2000 µM; IC50 [5]: 2010 ± 160 µM
O=S(=O)(F)/C=C/c1ccc(Br)cc1 [Compound 8] | – | – | 4.33 ± 0.77 | 9.12 ± 0.82 | 17.5 ± 1.77 | 10.7 ± 0.8 | IC50 ([6]; Homo sapiens, MGC-803, 48 h): 17.2 ± 0.41 µM
Cc1ccc(S(=O)(=O)n2cc(/C=C/S(=O)(=O)F)cn2)cc1 [Compound 61] | – | – | – | 27.3 ± 1 | 26.9 ± 1.2 | 28.2 ± 1.49 | IC50 ([6]; Homo sapiens, MGC-803, 48 h): 27.1 ± 1.03 µM
O=S(=O)(F)/C=C/c1ccc(F)cc1 [Compound 6] | – | – | 2.98 ± 0.59 | 5.99 ± 0.49 | – | 15.9 ± 0.35 | IC50 ([6]; Homo sapiens, MGC-803, 48 h): 44.2 ± 1.25 µM; IC50 ([3]; read-out: IC50 MDA-MB-231, antiproliferative, MTT, 48 h exposure): 9.2 ± 1.27 µM
O=S(=O)(F)/C=C/c1ccc(Cl)cc1 [Compound 7] | – | – | 3.02 ± 0.44 | 9.84 ± 0.78 | 12.3 ± 0.64 | 13.3 ± 0.39 | IC50 ([6]; Homo sapiens, MGC-803, 48 h): 12.9 ± 0.3 µM
